Some results are limits rather than exact numbers.

The target in this experiment is T1, human ENPP1 enzymatic domain (Homo sapiens, UniProt P22413).
T1 construct: recombinant protein containing the human ENPP1 enzymatic domain; purchased Viva Biotech
T1 sequence (P22413 191-591 limits assumed): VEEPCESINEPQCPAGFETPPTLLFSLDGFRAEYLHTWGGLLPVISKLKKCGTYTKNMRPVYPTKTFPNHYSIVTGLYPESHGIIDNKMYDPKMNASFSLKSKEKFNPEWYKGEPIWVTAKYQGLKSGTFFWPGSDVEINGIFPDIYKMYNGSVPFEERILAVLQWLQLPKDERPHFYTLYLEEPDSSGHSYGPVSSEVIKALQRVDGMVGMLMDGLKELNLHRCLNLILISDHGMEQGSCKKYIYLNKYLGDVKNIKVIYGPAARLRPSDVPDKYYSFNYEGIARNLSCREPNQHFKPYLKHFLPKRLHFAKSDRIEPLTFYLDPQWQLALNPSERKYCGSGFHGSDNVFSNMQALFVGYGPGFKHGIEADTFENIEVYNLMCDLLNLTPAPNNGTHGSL
The experiment is described as follows: ENPP1 Enzymatic Inhibition Assay (2′3′-cGAMP substrate, AMP-Glo luminescence). The settings on record: 1 nM ENPP1, 20 uM 2′3′-cGAMP, 30 minutes at 37° C. Format: biochemical. As to the method: The inhibition of ENPP1's phosphodiesterase activity were tested in a purified enzymatic assay using 2′3′-cyclic GAMP as a substrate which allowed for the release of cleaved AMP to be monitored using a luminescent assay.
Putative inhibitors were diluted in assay buffer (50 mM Tris pH 8.0, 250 mM NaCl, 0.5 mM CaCl2), 1 uM ZnCl2, 1% DMSO) and pre-incubated for 15 minutes at 37° C. with recombinant protein containing the human ENPP1 enzymatic domain (Viva Biotech). The enzymatic reaction was initiated upon addition of the 2′3′-cGAMP substrate. The final reaction concentrations were 1 nM ENPP1 and 20 uM 2′3′-cGAMP substrate in a 25 uL volume. Inhibitor concentrations ranged from 10 uM to 0.056 nM. The reaction was incubated for 30 minutes at 37° C.
After reacting for 30 minutes, the amount of AMP generated from the cleavage of 2′3′-cGAMP was determined using the Promega AMP-Glo method according to the manufacturer's protocol. First, AMP-Glo reagent 1 was added and incubated with the reaction mix for 1 hour at room temperature. Second, AMP Detection solution was added and the mixture was incubated for an additional hour. The luminescence of the mixture was read on a Perkin Elmer Ensight plate reader.
The maximum and minimum levels of ENPP1 activity were established using no inhibitor and no enzyme controls, respectively. The activity observed using ENPP1 inhibitors was quantified as the percent of activity relative to these controls. IC50 values were calculated using CDD Vault by fitting a sigmoidal variable slope nonlinear regression model to the data.
The IC50 is the concentration needed to halve the response being measured. A higher IC50 goes with lower potency. As to `COc1ccc2c(Oc3ccc([S@@](=N)(=O)N[C@H](C)c4ccnn4C)cc3)ccnc2c1` [Compound 28, (S)-4-((7-methoxyquinolin-4-yl)oxy)-N-((R)-1-(1-methyl-1 H-pyrazol-5-yl)ethyl)benzenesulfonimidamide], the IC50 was < 10 nM. In the case of `N=[S@](=O)(NCC1CC1)c1ccc(Nc2ccnc3cc(OC(F)F)ccc23)cc1` [Compound 22, (S)-N-(cyclopropylmethyl)-4-((7-(difluoromethoxy)quinolin-4-yl)amino)benzenesulfonimidamide], the IC50 was < 10 nM. The figure for `COc1ccc2c(Oc3ccc([S@@](=N)(=O)NC[C@@H](O)CO)cc3)ccnc2c1` [Compound 32, (S)-N-((R)-2,3-dihydroxypropyl)-4-((7-methoxyquinolin-4-yl)oxy)benzenesulfonimidamide] is < 10 nM; for `COc1ccc2c(Nc3ccc([S@](=N)(=O)N[C@@H](C)CO)cc3)ccnc2c1` [Compound 39, (R)-N-((S)-1-hydroxypropan-2-yl)-4-((7-methoxyquinolin-4-yl)amino)benzenesulfonimidamide] it is < 10 nM. The figure for `CN[S@@](=N)(=O)c1ccc(Nc2ccnc3cc(OC)ccc23)cc1` [Compound 17, (R)-4-((7-methoxyquinolin-4-yl)amino)-N-methylbenzenesulfonimidamide] is < 10 nM; for `COc1ccc2c(Nc3ccc([S@@](=N)(=O)NCC4CC4)cc3)ccnc2c1` [Compound 20, (S)-N-(cyclopropylmethyl)-4-((7-methoxyquinolin-4-yl)amino)benzenesulfonimidamide] it is < 10 nM. Then `COc1cccc2c(Nc3ccc([S@@](=N)(=O)NC[C@@H](C)O)cc3)ncnc12` [Compound 62, (S)-N-((R)-2-hydroxypropyl)-4-((8-methoxyquinazolin-4-yl)amino)benzenesulfonimidamide], with 10 to 100 nM. On to `COc1cccc2c(Nc3ccc([S@@](=N)(=O)NCCO)cc3)ccnc12` [Compound 58, (S)-N-(2-hydroxyethyl)-4-((8-methoxyquinolin-4-yl)amino)benzenesulfonimidamide], for which the IC50 was < 10 nM. The compound `COc1ccc2c(Oc3ccc([S@](=N)(=O)N[C@H](C)CO)cc3)ccnc2c1` [Compound 11, (R)-N-((R)-1-hydroxypropan-2-yl)-4-((7-methoxyquinolin-4-yl)oxy)benzenesulfonimidamide] showed an IC50 of 10 to 100 nM. In the case of `CN[S@@](=N)(=O)c1ccc(Nc2ncnc3cc(OC)ccc23)cc1` [Compound 15, (R)-4-((7-methoxyquinazolin-4-yl)amino)-N-methylbenzenesulfonimidamide], the IC50 fell in the range of 10 to 100 nM. On to `COc1ccc2c(Oc3ccc([S@@](=N)(=O)NCC(C)(C)O)cc3)ccnc2c1` [Compound 10, (S)-N-(2-hydroxy-2-methylpropyl)-4-((7-methoxyquinolin-4-yl)oxy)benzenesulfonimidamide], for which the IC50 was < 10 nM. The figure for `COc1ccc2c(Nc3ccc([S@](=N)(=O)NC[C@@H](C)O)cc3)ccnc2c1` [Compound 55, (R)-N-((R)-2-hydroxypropyl)-4-((7-methoxyquinolin-4-yl)amino)benzenesulfonimidamide] is < 10 nM; for `COc1ccc2c(Oc3ccc([S@@](=N)(=O)NCC4CC4)cc3)ccnc2c1` [Compound 14, (S)-N-(cyclopropylmethyl)-4-((7-methoxyquinolin-4-yl)oxy)benzenesulfonimidamide] it is < 10 nM; for `COc1ccc2c(Oc3ccc([S@](=N)(=O)N[C@@H](C)CO)cc3)ccnc2c1` [Compound 5, (R)-N-((S)-1-hydroxypropan-2-yl)-4-((7-methoxyquinolin-4-yl)oxy)benzenesulfonimidamide] it is 10 to 100 nM. The figure for `COc1ccc2c(Oc3ccc([S@](=N)(=O)NC[C@H](O)CO)cc3)ccnc2c1` [Compound 33, (R)-N-((S)-2,3-dihydroxypropyl)-4-((7-methoxyquinolin-4-yl)oxy)benzenesulfonimidamide] is 10 to 100 nM; for `COc1ccc2c(Oc3ccc([S@](=N)(=O)NCCO)cc3)ccnc2c1` [Compound 3, (R)-N-(2-hydroxyethyl)-4-((7-methoxyquinolin-4-yl)oxy)benzenesulfonimidamide] it is 10 to 100 nM. `COc1ccc2c(Nc3ccc([S@](=N)(=O)N[C@@H](C)c4ccnn4C)cc3)ccnc2c1` [Compound 41, (R)-4-((7-methoxyquinolin-4-yl)amino)-N-((S)-1-(1-methyl-1H-pyrazol-5-yl)ethyl)benzenesulfonimidamide]: the IC50 lay in the range of 10 to 100 nM. As for `COc1ccc2c(Oc3ccc([S@](=N)(=O)NC[C@@H](O)CO)cc3)ccnc2c1` [Compound 31, (R)-N-((R)-2,3-dihydroxypropyl)-4-((7-methoxyquinolin-4-yl)oxy)benzenesulfonimidamide], the IC50 was 10 to 100 nM.

As for `COc1cc2nccc(Nc3ccc([S@@](=N)(=O)NC[C@@H](C)O)cc3)c2cc1F` [Compound 68, (S)-4-((6-fluoro-7-methoxyquinolin-4-yl)amino)-N-((R)-2-hydroxypropyl)benzenesulfonimidamide], the IC50 was < 10 nM. Then `COc1ccc2c(Nc3ccc([S@](=N)(=O)NC[C@H](C)O)c(F)c3)ccnc2c1` [Compound 47, (R)-2-fluoro-N-((S)-2-hydroxypropyl)-4-((7-methoxyquinolin-4-yl)amino)benzenesulfonimidamide], with < 10 nM. In turn, `COc1ccc2c(Oc3ccc([S@](=N)(=O)NCC(C)(C)O)cc3)ccnc2c1` [Compound 9, (R)-N-(2-hydroxy-2-methylpropyl)-4-((7-methoxyquinolin-4-yl)oxy)benzenesulfonimidamide] had an IC50 of 10 to 100 nM. On to `COc1ccc2c(Nc3ccc([S@@](=N)(=O)NC[C@H](C)O)cc3F)ccnc2c1` [Compound 46, (S)-3-fluoro-N-((S)-2-hydroxypropyl)-4-((7-methoxyquinolin-4-yl)amino)benzenesulfonimidamide], for which the half-inhibitory concentration (IC50) is < 10 nM. The figure for `COc1ccc2c(Nc3ccc([S@](=N)(=O)NCCO)cc3)ccnc2c1` [Compound 53, (R)-N-(2-hydroxyethyl)-4-((7-methoxyquinolin-4-yl)amino)benzenesulfonimidamide] is < 10 nM. Then `COc1ccc2c(Nc3ccc([S@@](=N)(=O)N[C@H](C)CO)cc3)ccnc2c1` [Compound 36, (S)-N-((R)-1-hydroxypropan-2-yl)-4-((7-methoxyquinolin-4-yl)amino)benzenesulfonimidamide], with < 10 nM; and `COc1cccc2c(Nc3ccc([S@](=N)(=O)NC[C@@H](C)O)cc3)ncnc12` [Compound 61, (R)-N-((R)-2-hydroxypropyl)-4-((8-methoxyquinazolin-4-yl)amino)benzenesulfonimidamide], with > 100 nM. Then `COc1ccc2c(Oc3ccc([S@@](=N)(=O)N[C@@H](C)CO)cc3)ccnc2c1` [Compound 6, (S)-N-((S)-1-hydroxypropan-2-yl)-4-((7-methoxyquinolin-4-yl)oxy)benzenesulfonimidamide], with < 10 nM; and `COc1ccc2c(Nc3ccc([S@@](=N)(=O)NC[C@H](C)O)c(F)c3)ccnc2c1` [Compound 48, (S)-2-fluoro-N-((S)-2-hydroxypropyl)-4-((7-methoxyquinolin-4-yl)amino)benzenesulfonimidamide], with < 10 nM; and `COc1ccc2c(Oc3ccc([S@](=N)(=O)NC[C@H](C)O)cc3)ccnc2c1` [Compound 7, (R)-N-((S)-2-hydroxypropyl)-4-((7-methoxyquinolin-4-yl)oxy)benzenesulfonimidamide], with 10 to 100 nM. Consider `COc1ccc2c(Nc3ccc([S@](=N)(=O)NCCCn4cnnc4)cc3)ccnc2c1` [Compound 49, (R)-N-(3-(4H-1,2,4-triazol-4-yl)propyl)-4-((7-methoxyquinolin-4-yl)amino)benzenesulfonimidamide], for which the IC50 was < 10 nM. The figure for `COc1cc2nccc(Nc3ccc([S@@](=N)(=O)NC[C@@H](C)O)cc3)c2cc1OC` [Compound 52, (S)-4-((6,7-dimethoxyquinolin-4-yl)amino)-N-((R)-2-hydroxypropyl)benzenesulfonimidamide] is < 10 nM; for `COc1ccc2c(Nc3ccc([S@](=N)(=O)NC[C@H](C)O)cc3)ccnc2c1` [Compound 37, (R)-N-((S)-2-hydroxypropyl)-4-((7-methoxyquinolin-4-yl)amino)benzenesulfonimidamide] it is < 10 nM.

These data come from US20240382474A1, “ENPP1 MODULATORS AND USES THEREOF” (Vir Biotechnology, Inc., priority 2021, published 2024).
